Results taken from ChEMBL document CHEMBL1131207, “Discovery and evaluation of a series of 3-acylindole imidazopyridine platelet-activating factor antagonists” (J Med Chem, 1998).

How the values were obtained:
[1] = biological target: Platelet-activating factor receptor (Rattus norvegicus) (UniProt P46002); test: Ability to block the effect of exogenously administered PAF upon intravenous administration in PAF-induced rat skin permeability assay; type: functional, organism-based
[2] = biological target: Platelet-activating factor receptor (Rattus norvegicus) (UniProt P46002); test: Tested in vivo for to block the effect of exogenously administered PAF upon oral administration in PAF-induced rat skin permeability assay; type: functional, organism-based

Chain of Platelet-activating factor receptor (Rattus norvegicus) (P46002 whole entry): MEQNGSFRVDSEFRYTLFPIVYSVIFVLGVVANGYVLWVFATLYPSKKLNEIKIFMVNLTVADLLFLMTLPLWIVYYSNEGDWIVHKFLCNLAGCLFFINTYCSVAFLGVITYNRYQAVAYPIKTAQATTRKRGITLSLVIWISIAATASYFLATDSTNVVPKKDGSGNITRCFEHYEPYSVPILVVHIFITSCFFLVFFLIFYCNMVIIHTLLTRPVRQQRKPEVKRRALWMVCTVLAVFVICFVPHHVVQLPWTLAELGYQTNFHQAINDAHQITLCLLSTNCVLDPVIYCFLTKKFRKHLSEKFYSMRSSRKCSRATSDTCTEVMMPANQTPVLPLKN

| SMILES | ED50 [1] | ED50 [2] |
| --- | --- | --- |
| Cc1nc2cnccc2n1CCCN(C)CC(=O)c1cn(C(=O)N(C)C)c2cc(-c3ccc(F)cc3)ccc12 | > 1 mg/kg |  |
| COC(=O)c1cccc2c1c(C(=O)CCCCCn1c(C)nc3cnccc31)cn2C(=O)N(C)C | 0.013 mg/kg | 1.1 mg/kg |
| Cc1nc2cnccc2n1Cc1ccc(C(=O)c2cn(C(=O)N(C)C)c3ccc(-c4ccc(F)cc4)cc23)cc1 | > 1 mg/kg |  |
| Cc1nc2cnccc2n1Cc1ccc(C(=O)c2cn(C(=O)N(C)C)c3cccc(C(=O)O)c23)cc1 | > 1 mg/kg |  |
| COC(=O)c1cccc2c1c(C(=O)Cc1ccc(-n3c(C)nc4cnccc43)cc1)cn2C(=O)N(C)C | 0.005 mg/kg | 0.17 mg/kg |
| Cc1nc2ccncc2n1Cc1ccc(C(=O)c2cn(C(=O)N(C)C)c3cc(-c4ccc(F)cc4)ccc23)cc1 | 1.1 mg/kg |  |
| Cc1nc2cnccc2n1CC1CCN(C(=O)c2cn(C(=O)N(C)C)c3cc(-c4ccc(F)cc4)ccc23)CC1 | 0.022 mg/kg | 2.2 mg/kg |
| Cc1nc2cnccc2n1Cc1ccc(C(=O)c2cn(C(=O)N(C)C)c3cccc(C#N)c23)cc1 | 0.23 mg/kg |  |
| COC(=O)c1ccc2c(c1)c(C(=O)c1ccc(Cn3c(C)nc4cnccc43)cc1)cn2C(=O)N(C)C | > 1 mg/kg |  |
| Cc1cccc2c1c(C(=O)CN1CCC(n3c(C)nc4cnccc43)CC1)cn2C(=O)N(C)C | 0.005 mg/kg | 0.14 mg/kg |
| Cc1nc2cnccc2n1C1CCN(C(=O)c2cn(C(=O)N(C)C)c3cc(-c4ccc(F)cc4)ccc23)CC1 | > 1 mg/kg |  |
| CCOCCn1cc(C(=O)CN2CCC(n3c(C)nc4cnccc43)CC2)c2c(Cl)cccc21 | 0.068 mg/kg |  |
| COc1cccc2c1c(C(=O)c1ccc(Cn3c(C)nc4cnccc43)cc1)cn2C(=O)N(C)C | 0.007 mg/kg | 0.22 mg/kg |
| COC(=O)c1cccc2c1c(C(=O)c1ccc(Cn3c(C)nc4cnccc43)c(F)c1)cn2C(=O)N(C)C | 0.006 mg/kg | 0.36 mg/kg |
| Cc1nc2cnccc2n1CCCCCC(=O)c1cn(C(=O)N(C)C)c2cccc(-c3ccc(F)cc3)c12 | 0.005 mg/kg | > 1 mg/kg |
| COC(=O)c1cc(-c2ccc(F)cc2)cc2c1c(C(=O)c1ccc(Cn3c(C)nc4cnccc43)cc1)cn2C(=O)N(C)C | 0.002 mg/kg | 0.64 mg/kg |
| COC(=O)c1cccc2c1c(C(=O)c1ccc(Cn3c(C)nc4c[n+]([O-])ccc43)cc1)cn2C(=O)N(C)C | 0.14 mg/kg |  |
| Cc1nc2cnccc2n1Cc1ccc(C(=O)c2cn(C(=O)N(C)C)c3cccc(OC(=O)N(C)C)c23)cc1F | 0.005 mg/kg | 2.7 mg/kg |
| COC(=O)c1cccc2c1c(C(=O)c1ccc(Cn3c(C)nc4cnccc43)cc1)cn2C(N)=O | 0.12 mg/kg |  |
| Cc1nc2cnccc2n1Cc1ccc(C(=O)c2cn(C(=O)N(C)C)c3cccc(OC(=O)N(C)C)c23)cc1 | 0.005 mg/kg | 0.34 mg/kg |
| COC(=O)c1cccc2c1c(C(=O)c1ccc(Cn3c(C)nc4cccnc43)cc1)cn2C(=O)N(C)C | 1.2 mg/kg |  |
| Cc1nc2cnccc2n1Cc1ccc(S(=O)(=O)c2cn(C(=O)N(C)C)c3ccccc23)cc1 | > 1 mg/kg |  |
| Cc1nc2cnccc2n1CN1CCN(S(=O)(=O)c2cn(C(=O)N(C)C)c3cc(-c4ccc(F)cc4)ccc23)CC1 | 0.019 mg/kg |  |
| Cc1nc2cnccc2n1Cc1ccc(C(=O)c2cn(C(=O)N(C)C)c3ccccc23)cc1 | 0.18 mg/kg |  |
| COC(=O)c1cccc2c1c(C(=O)c1ccc(Cn3c(C)nc4cnccc43)cc1)cn2C(=O)N(C)C |  | 0.22 mg/kg |
| Cc1nc2cnccc2n1Cc1ccc(C(=O)c2c[nH]c3cc(-c4ccc(F)cc4)ccc23)cc1 | 1.3 mg/kg |  |

| SMILES | ED50 [1] | ED50 [2] |
| --- | --- | --- |
| Cc1nc2cnccc2n1Cc1ccc(C(=O)c2cn(C(=O)N(C)C)c3cccc(-c4ccc(F)cc4)c23)cc1 | 0.004 mg/kg | 0.45 mg/kg |
| CCOCCn1cc(C(=O)c2ccc(Cn3c(C)nc4cnccc43)cc2)c2c(C(=O)OC)cccc21 | 0.012 mg/kg | 1.1 mg/kg |
| COC(=O)c1cccc2[nH]cc(C(=O)c3ccc(Cn4c(C)nc5cnccc54)cc3)c12 | 0.15 mg/kg |  |
| C#Cc1cccc2c1c(C(=O)c1ccc(Cn3c(C)nc4cnccc43)cc1)cn2C(=O)N(C)C | 0.003 mg/kg | 0.14 mg/kg |
| Cc1nc2cnccc2n1Cc1ccc(C(=O)c2cn(C(=O)N(C)C)c3cccc(Cl)c23)cc1 | 0.008 mg/kg | 0.12 mg/kg |
| COC(=O)c1cc(-c2cc3ccccc3o2)cc2c1c(C(=O)c1ccc(Cn3c(C)nc4cnccc43)cc1)cn2C(=O)N(C)C | 0.011 mg/kg |  |
| COC(=O)c1[nH]c2cccc(OC)c2c1C(=O)c1ccc(Cn2c(C)nc3cnccc32)cc1 | 0.65 mg/kg |  |
| Cc1nc2cnccc2n1Cc1ccc(C(=O)c2cn(C(=O)N(C)C)c3cccc(NC(=O)c4ccccc4)c23)cc1 | 0.11 mg/kg |  |
| COC(=O)c1cccc2c1c(C(=O)c1ccc(Cn3c(C)nc4ccccc43)cc1)cn2C(=O)N(C)C | > 1 mg/kg |  |
| Cc1nc2cnccc2n1Cc1ccc(C(=O)c2c[nH]c3c(-c4ccc(F)cc4)cccc23)cc1 | > 1 mg/kg |  |
| Cc1nc2cnccc2n1Cc1ccc(C(=O)c2cn(C(=O)N(C)C)c3cccc(F)c23)cc1 | 0.18 mg/kg |  |
| COC(=O)c1cc(C#Cc2ccccc2)cc2c1c(C(=O)c1ccc(Cn3c(C)nc4cnccc43)cc1)cn2C(=O)N(C)C | 0.004 mg/kg | 0.6 mg/kg |
| CCc1cccc2c1c(C(=O)c1ccc(Cn3c(C)nc4cnccc43)cc1)cn2C(=O)N(C)C | 0.003 mg/kg | 0.078 mg/kg |
| COC(=O)c1cccc2c1c(C(=O)c1ccc(Cn3c(C)nc4c(C)nc(C)cc43)cc1)cn2C(=O)N(C)C | > 1 mg/kg |  |
| COC(=O)c1cccc2c1c(C(=O)c1ccc(Cn3c(C)nc4cnccc43)cc1)cn2C(=O)N1CCCC1 | 0.005 mg/kg | 1.2 mg/kg |
| COC(=O)c1cccc2c1c(C(=O)c1ccc(Cn3c(C)nc4cnccc43)cc1)cn2CC(=O)N(C)C | 0.012 mg/kg | 2.4 mg/kg |
| Cc1nc2cnccc2n1Cc1ccc(C(=O)c2cn(C(=O)N(C)C)c3cccc(C(=O)N(C)C)c23)cc1 | 0.028 mg/kg | 1.3 mg/kg |
| Cc1nc2cnccc2n1Cc1ccc(C(=O)c2c[nH]c3c(OCc4ccccc4)cccc23)cc1 | 0.24 mg/kg |  |
| Cc1nc2cnccc2n1Cc1ccc(C(=O)c2cn(C(=O)N(C)C)c3cccc(O)c23)cc1 | > 1 mg/kg |  |
| Cc1ccc(C)c2c(C(=O)c3ccc(Cn4c(C)nc5cnccc54)cc3)c[nH]c12 | 0.054 mg/kg |  |
| Cc1nc2cnccc2n1Cc1ccc(C(=O)c2cn(C(=O)N(C)C)c3cccc(C(=O)OCc4ccccc4)c23)cc1 | 0.12 mg/kg |  |
| Cc1nc2cnccc2n1Cc1ccc(C(=O)c2cn(C(=O)N(C)C)c3cccc(-c4ccco4)c23)cc1 | 0.007 mg/kg | 0.79 mg/kg |
| COC(=O)c1cccc2c1c(C(=O)c1ccc(Cn3c(C)nc4cnccc43)cc1)cn2S(=O)(=O)N(C)C | 0.074 mg/kg |  |
| COC(=O)c1ccc(C(=O)OC)c2c(C(=O)c3ccc(Cn4c(C)nc5cnccc54)cc3)c[nH]c12 | 0.035 mg/kg | 0.71 mg/kg |
| Cc1nc2cnccc2n1Cc1ccc(C(=O)c2cn(C(=O)N(C)C)c3cccc(C(=O)OC(C)C)c23)cc1 | 0.006 mg/kg |  |
| COC(=O)c1cccc2c1c(C(=O)c1ccc(Cn3c(C)nc4c(O)nccc43)cc1)cn2C(=O)N(C)C | 0.25 mg/kg |  |

| SMILES | ED50 [1] | ED50 [2] |
| --- | --- | --- |
| COC(=O)c1cccc2c1c(C(=O)c1ccc(Cn3c(C)nc4cnccc43)cc1)cn2C(C)C | 0.1 mg/kg |  |
| COC(=O)c1cccc2c1c(C(=O)c1ccc(Cn3c(C)nc4cnccc43)s1)cn2C(=O)N(C)C | 0.12 mg/kg |  |
| C#Cc1cccc2c1c(C(O)c1ccc(Cn3c(C)nc4cnccc43)c(F)c1)cn2C(=O)N(C)C (stereo not given) | 0.007 mg/kg |  |
| COC(=O)c1cccc2c1c(C(=O)CN1CCC(n3c(C)nc4cnccc43)CC1)cn2C(=O)N(C)C | 0.006 mg/kg | > 1 mg/kg |
| COC(=O)c1cccc2c1c(C(=O)c1ccc(Cn3c(C)nc4cnccc43)cc1)cn2S(=O)(=O)C(C)C | 0.12 mg/kg |  |
| Cc1cccc2c1c(C(=O)c1ccc(Cn3c(C)nc4cnccc43)cc1)cn2C(=O)N(C)C | 0.004 mg/kg | 0.2 mg/kg |
| COC(=O)c1cccc2c1c(C(=O)CCCCCCn1c(C)nc3cnccc31)cn2C(=O)N(C)C | > 1 mg/kg |  |
| Cc1[nH]c2ccccc2c1C(=O)c1ccc(Cn2c(C)nc3cnccc32)cc1 | > 1 mg/kg |  |
| C#Cc1cccc2c1c(C(=O)c1ccc(Cn3c(C)nc4cnccc43)c(F)c1)cn2C(=O)NC | 0.006 mg/kg |  |
| Cc1nc2ncccc2n1Cc1ccc(C(=O)c2cn(C(=O)N(C)C)c3cccc(Cl)c23)cc1 | 0.34 mg/kg |  |
| COC(=O)c1cc(Br)cc2c1c(C(=O)c1ccc(Cn3c(C)nc4cnccc43)cc1)cn2C(=O)N(C)C | 0.009 mg/kg | 0.83 mg/kg |
| CCOC(=O)c1cccc2c1c(C(=O)c1ccc(Cn3c(C)nc4cnccc43)cc1)cn2C(=O)N(C)C | 0.006 mg/kg | > 1 mg/kg |
| C#Cc1cccc2[nH]cc(C(=O)c3ccc(Cn4c(C)nc5cnccc54)c(F)c3)c12 | 0.018 mg/kg |  |
| COC(=O)c1cccc2c1c(C(=O)c1ccc(Cn3c(C)nc4ccncc43)cc1)cn2C(=O)N(C)C | 0.24 mg/kg |  |
| Cc1nc2cnccc2n1Cc1csc(C(=O)c2cn(C(=O)N(C)C)c3cc(-c4ccc(F)cc4)ccc23)n1 | 0.35 mg/kg |  |
| Cc1nc2cnccc2n1Cc1ccc(C(=O)c2cn(C(=O)N(C)C)c3cccc(Br)c23)cc1 | 0.007 mg/kg | 0.13 mg/kg |
| COC(=O)c1cccc2c1c(C(=O)c1ccc(Cn3c(C)nc4ccccc43)cc1)cn2C(=O)N1CCCC1 | 1 mg/kg |  |
| C#Cc1cccc2c1c(C(=O)c1ccc(Cn3c(C)nc4c[n+]([O-])ccc43)c(F)c1)cn2C(=O)N(C)C | > 0.5 mg/kg |  |
| COC(=O)c1cccc2c1c(C(=O)c1ccc(Cn3c(C)nc4cnccc43)cc1)cn2CC(=O)C(C)(C)C | 0.036 mg/kg |  |
| COC(=O)c1cccc2c1c(C(=O)CCCCn1c(C)nc3cnccc31)cn2C(=O)N(C)C | > 1 mg/kg |  |
| Cc1nc2cnccc2n1CC(=O)c1cn(C(=O)N(C)C)c2cc(-c3ccc(F)cc3)ccc12 | > 1 mg/kg |  |
| COC(=O)c1cccc2c1c(C(=O)C1CCC(Cn3c(C)nc4cnccc43)CC1)cn2C(=O)N(C)C (stereo not given) | 0.02 mg/kg | > 1 mg/kg |
| COC(=O)c1cccc2c1c(C(=O)c1ccc(Cn3c(C)nc4ncccc43)cc1)cn2C(=O)N(C)C | 0.026 mg/kg |  |
| Cc1nc2cnccc2n1CCN1CCN(C(=O)c2cn(C(=O)N(C)C)c3cc(-c4ccc(F)cc4)ccc23)CC1 | > 1 mg/kg |  |
| COC(=O)c1cccc2c1c(S(=O)(=O)c1ccc(Cn3c(C)nc4cnccc43)cc1)cn2C(=O)N(C)C | 0.48 mg/kg |  |
| CNC(=O)n1cc(C(=O)c2ccc(Cn3c(C)nc4cnccc43)cc2)c2c(C(=O)OC)cccc21 | 0.007 mg/kg |  |
